The species named for assay [1] is Rattus norvegicus. The assay can be described thus: Ability to displace [3H]- SB-204269 in the rat forebrain.
Assay [2] relates to Mus musculus. The assay is described as follows: In vivo percent increase in seizure threshold in mouse MEST model 1 hour following 10 mg/kg p.o. The settings on record: at 10 mg/kg.
Assay [3] has as its system Mus musculus. The assay is described as follows: In vivo percent increase in seizure threshold in mouse MEST model 4 hours following 10 mg/kg p.o. Conditions: at 10 mg/kg.
Assay [4] has as its system Rattus norvegicus. The assay can be described thus: In vivo percent increase in seizure threshold in rat MEST model at the dose of 10 mg/kg p.o. recorded 0.25 hr post dose. Conditions: route oral. The assay is classed as functional.
In assay [5] the test system is Rattus norvegicus. The assay can be described thus: In vivo percent increase in seizure threshold in rat MEST model at the dose of 10 mg/kg p.o. recorded 0.5 hr post dose. The assay is classed as functional. The settings on record: route oral.
For assay [6], the system named is Rattus norvegicus. The assay can be described thus: In vivo percent increase in seizure threshold in rat MEST model at the dose of 10 mg/kg p.o. recorded 1 hr post dose. Format: functional. The settings on record: route oral.
In assay [7] the test system is Rattus norvegicus. The assay can be described thus: In vivo percent increase in seizure threshold in rat MEST model at the dose of 10 mg/kg p.o. recorded 2 hr post dose. Format: functional. Conditions: route oral.
Assay [8] relates to Rattus norvegicus. The assay can be described thus: In vivo percent increase in seizure threshold in rat MEST model at the dose of 10 mg/kg p.o. recorded 6 hr post dose. Format: functional. The settings on record: route oral.
Assay [9] deals with Rattus norvegicus. The assay is described as follows: In vivo percent increase in seizure threshold in rat MEST model at the dose of 3 mg/kg p.o. recorded 4 hr post dose. The assay is classed as functional. Conditions: route oral.
Assay [10] has as its system Rattus norvegicus. The assay can be described thus: In vivo percent increase in seizure threshold in rat MEST model at the dose of 3 mg/kg p.o. recorded 6 hr post dose. Conditions: route oral. The assay is classed as functional.
In assay [11] the test system is Rattus norvegicus. The assay is described as follows: In vivo percent increase in seizure threshold in rat MEST model at the dose of 3 mg/kg p.o. recorded 0.25 hr post dose. The assay is classed as functional. Conditions: route oral.
The test system of assay [12] is Rattus norvegicus. The assay can be described thus: In vivo percent increase in seizure threshold in rat MEST model at the dose of 3 mg/kg p.o. recorded 0.5 hr post dose. Conditions: route oral. The assay is classed as functional.
For assay [13], the system named is Rattus norvegicus. The assay is described as follows: In vivo percent increase in seizure threshold in rat MEST model at the dose of 3 mg/kg p.o. recorded 1 hr post dose. The assay is classed as functional. Conditions: route oral.
For assay [14], the system named is Rattus norvegicus. The assay is described as follows: In vivo percent increase in seizure threshold in rat MEST model at the dose of 3 mg/kg p.o. recorded 2 hr post dose. The assay is classed as functional. The settings on record: route oral.

For the compound `CC(=O)c1ccc2c(c1)[C@@H](NC(=O)c1cccc(Cl)c1)[C@@H](O)C(C)(C)O2`, the Log Ki in the assay listed under Rattus norvegicus [1] was more than -5.4.
For `CC(=O)c1ccc2c(c1)[C@H](NC(=O)c1ccsc1Cl)[C@H](O)C(C)(C)O2`, the “Log Ki” value in the assay listed under Rattus norvegicus [1] is -7.5. The results for the Increase in the assay with Mus musculus [2] and in the assay with Mus musculus [3] were 47% and 383%, respectively.
For the compound `CC(=O)c1ccc2c(c1)[C@H](NC(=O)c1ccsc1Cl)[C@@H](O)C(C)(C)O2`, the Increase turned out to be 95% in the assay on Mus musculus [2] and 519% in the assay on Mus musculus [3].
In the case of `CC(=O)c1ccc2c(c1)[C@H](NC(=O)c1ccc(F)cc1Cl)[C@H](O)C(C)(C)O2`, the “Log Ki” value in the assay filed under Rattus norvegicus [1] is reported as -7.2. Besides, the Increase in the assay with Mus musculus [2] worked out at 153%; in the assay with Mus musculus [3] it was 269%.
`CC(=O)c1ccc2c(c1)[C@H](NC(=O)c1c(Cl)cccc1Cl)[C@@H](O)C(C)(C)O2` showed an Increase in the assay on Mus musculus [2] of 10%.
On the same count and under the same terms, next, `CC(=O)c1ccc2c(c1)[C@H](NC(=O)c1cnccn1)[C@@H](O)C(C)(C)O2`: 15%.
Regarding `CC(=O)c1ccc2c(c1)[C@H](NC(=O)c1cccc(Cl)c1)[C@@H](O)C(C)(C)O2`, the Increase amounted to 157% in the assay with Rattus norvegicus [4]; 273% in the assay with Rattus norvegicus [5]; 507% in the assay on Rattus norvegicus [6]; 796% with Rattus norvegicus [7]; 983% in the assay with Rattus norvegicus [8]; 90% with Mus musculus [2]. The Increase in the assay on Mus musculus [3] came to 945%.
For the compound `CC(=O)c1ccc2c(c1)[C@H](NC(=O)c1ccc(F)c(Cl)c1)[C@H](O)C(C)(C)O2` [TONABERSAT], the Increase is listed as 533% in the assay with Rattus norvegicus [9]; 638% with Rattus norvegicus [10]; 76% with Rattus norvegicus [11]; 202% in the assay on Rattus norvegicus [12]; 369% in the assay on Rattus norvegicus [13]; 576% in the assay on Rattus norvegicus [14]. Besides, the “Log Ki” value in the assay filed under Rattus norvegicus [1] is recorded as -7.9.
Consider `CC(=O)c1ccc2c(c1)[C@H](NC(=O)c1ccc(F)cc1)[C@@H](O)C(C)(C)O2` [CARABERSAT], for which the Increase in the assay with Rattus norvegicus [4] is 48%; in the assay on Rattus norvegicus [5], 90%; in the assay with Rattus norvegicus [6] it was 180%; with Rattus norvegicus [7], 420%; in the assay on Rattus norvegicus [8] it was 390%. Besides, in the assay filed under Rattus norvegicus [1], the “Log Ki” value was -7.3.
`CC(=O)c1ccc2c(c1)[C@H](NC(=O)c1cccc(Cl)c1)[C@H](O)C(C)(C)O2`: the results for the Increase in the assay on Mus musculus [2] and in the assay on Mus musculus [3] were 93% and 604%, respectively.
With `CC(=O)c1ccc2c(c1)[C@H](NC(=O)c1ccc(F)cc1Cl)[C@@H](O)C(C)(C)O2`, the Increase is 900% in the assay with Rattus norvegicus [9]; 1060% in the assay with Rattus norvegicus [10]; 90% with Rattus norvegicus [11]; 208% in the assay with Rattus norvegicus [12]; 300% in the assay with Rattus norvegicus [13]; 660% with Rattus norvegicus [14]. Moreover, the figures for the Increase with Mus musculus [2] and in the assay on Mus musculus [3] were 162% and 1080%, respectively.
The compound `CC(=O)c1ccc2c(c1)[C@H](NC(=O)c1cc(Cl)cc(Cl)c1Cl)[C@@H](O)C(C)(C)O2` displayed an Increase in the assay on Mus musculus [2] of 33%.
In the assay with Mus musculus [2], `CC(=O)c1ccc2c(c1)[C@H](NC(=O)c1cccnc1)[C@@H](O)C(C)(C)O2` registered an Increase of 30%.
As for `CC(=O)c1ccc2c(c1)[C@H](NC(=O)c1cccc(Cl)c1Cl)[C@@H](O)C(C)(C)O2`, the Increase stood at 104% with Rattus norvegicus [4]; 286% in the assay on Rattus norvegicus [5]; 880% with Rattus norvegicus [6]; 1124% in the assay with Rattus norvegicus [7]; 1076% in the assay on Rattus norvegicus [8].
`CC(=O)c1ccc2c(c1)[C@H](NC(=O)c1ccsc1)[C@@H](O)C(C)(C)O2` displayed an Increase in the assay on Mus musculus [2] of 50%.
